Results reported in US20240336624A1, “PARP INHIBITOR CONTAINING PIPERAZINE STRUCTURE, PREPARATION METHOD THEREFOR AND PHARMACEUTICAL USE THEREOF” (WIGEN BIOMEDICINE TECHNOLOGY (SHANGHAI) CO., LTD., priority 2021, published 2024).

The compounds below were run against PARP-1 enzyme (Homo sapiens, UniProt P09874) (assay: In vitro inhibition of activity of poly (ADP-ribose) polymerase [PARP-1 enzyme], histone-coated plate chemiluminescence). Conditions: class symbols; read-out: Inhibitory activity against PARP-1 (IC50).
PARP-1 enzyme, sequence (P09874 whole entry): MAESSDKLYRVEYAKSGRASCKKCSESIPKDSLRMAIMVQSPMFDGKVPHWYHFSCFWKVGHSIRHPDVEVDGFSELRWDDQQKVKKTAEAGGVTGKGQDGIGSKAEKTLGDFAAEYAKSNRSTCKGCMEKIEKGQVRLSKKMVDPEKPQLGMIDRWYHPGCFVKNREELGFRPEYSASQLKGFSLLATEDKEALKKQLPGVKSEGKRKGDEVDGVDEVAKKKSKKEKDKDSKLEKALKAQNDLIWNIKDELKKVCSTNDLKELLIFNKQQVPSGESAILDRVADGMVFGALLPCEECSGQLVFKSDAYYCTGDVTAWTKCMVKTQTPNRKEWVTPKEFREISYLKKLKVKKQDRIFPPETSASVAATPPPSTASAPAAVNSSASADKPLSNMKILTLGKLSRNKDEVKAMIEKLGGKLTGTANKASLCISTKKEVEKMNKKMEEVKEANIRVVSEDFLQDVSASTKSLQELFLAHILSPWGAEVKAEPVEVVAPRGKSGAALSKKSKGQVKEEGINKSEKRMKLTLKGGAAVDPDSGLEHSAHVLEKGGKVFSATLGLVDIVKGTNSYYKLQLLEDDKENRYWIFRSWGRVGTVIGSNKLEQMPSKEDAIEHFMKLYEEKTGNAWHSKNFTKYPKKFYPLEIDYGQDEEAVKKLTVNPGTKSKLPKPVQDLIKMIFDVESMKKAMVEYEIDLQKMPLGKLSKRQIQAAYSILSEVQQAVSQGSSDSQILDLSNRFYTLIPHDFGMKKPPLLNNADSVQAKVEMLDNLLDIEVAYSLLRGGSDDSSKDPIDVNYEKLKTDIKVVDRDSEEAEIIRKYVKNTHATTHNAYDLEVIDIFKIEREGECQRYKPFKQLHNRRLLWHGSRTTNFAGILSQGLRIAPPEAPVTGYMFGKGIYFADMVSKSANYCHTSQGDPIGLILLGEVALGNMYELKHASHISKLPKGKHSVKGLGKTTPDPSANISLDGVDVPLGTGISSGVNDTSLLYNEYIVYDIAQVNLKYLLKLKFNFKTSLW
Assay type: biochemical
Method: Example 69. Experiment on In Vitro Inhibition of Activity of Poly (ADP-Ribose) Polymerase [PARP-1 Enzyme] with Compounds of the Present Invention
The histones were coated onto 384-well plates at 4° C. overnight, rinsed three times with a PBST buffer, and blocked at room temperature for 1 h. After 1 h, the histones were rinsed three more times with PBST, DMSO or a serially diluted compound, and a mixture containing PARP-1 enzymes and DNA was added, and the resulting mixture was incubated at 25° C. for 10 min. After 10 min NAD^+ was added to start the reaction. After reacting at room temperature for 60 min, the reaction solution was rinsed three times with PBST, and the level of poly/mono-ADP ribose on the histones was detected by the addition of a poly/mono-ADP ribose antibody conjugated with horseradish peroxidase ([…]). After incubation at room temperature for 1 h, HRP substrates ECL A and B were added, and Envision quantified chemiluminescence. The inhibition percentages and IC50 of the compounds were calculated compared to the control group DMSO.

`CCc1cc2ncc(CN3CCN(c4cnc(C(=O)NC)nc4)CC3)cc2[nH]c1=O` [Compound 2] and `CCc1cc2ncc(CN3CCN(c4cnc(C(=O)NC5CC5)nc4)CC3)cc2[nH]c1=O` [Compound 32] cannot be ordered by IC50: at most 10 nM for the first, 10 to 50 nM for the second.

`CCc1cc2ncc(C(C)N3CCN(c4ccc(C(=O)NC)nc4)CC3)cc2[nH]c1=O` (stereo not drawn) [Compound 3] and `CCc1cc2ncc(C(C)N3CCN(c4ccc(C(=O)NC5CC5)nc4)CC3)cc2[nH]c1=O` (stereo not drawn) [Compound 10] cannot be ordered by IC50: at most 10 nM for the first, 10 to 50 nM for the second.

`CCc1nc2ccc(CN3CCN(c4ccc(C(=O)NC)nc4)CC3)nc2[nH]c1=O` [Compound 4] and `CCc1nc2ccc(CN3CCN(c4ccc(C(=O)NC5CC5)nc4)CC3)nc2[nH]c1=O` [Compound 46] cannot be ordered by IC50: at most 10 nM for the first, at most 10 nM for the second.

First: CCc1cc2ncc(CN3CCN(c4ccc(C(=O)NC5CCC5)nc4)CC3)cc2[nH]c1=O [Compound 6]
Second: CCc1cc2ncc(CN3CCN(c4ccc(C(=O)NC5CC(F)C5)nc4)CC3)cc2[nH]c1=O (stereo not drawn) [Compound 12]
The IC50 of the first is higher: over 50 nM for the first, at most 10 nM for the second.

`CCc1cc2ncc(CN3CCN(c4ccc(C(=O)NC5CC5)nc4F)CC3)cc2[nH]c1=O` [Compound 7] and `CCc1cc2ncc(CN3CCN(c4ccc(C(=O)NC5CC5)nc4C)CC3)cc2[nH]c1=O` [Compound 8] fall in the same range of IC50: 10 to 50 nM for the first, 10 to 50 nM for the second.

`CCc1cc2ncc(CN3CCN(c4ccc(C(=O)NC5CC5)nc4C(F)F)CC3)cc2[nH]c1=O` [Compound 9] and `CCc1cc2ncc(CN3CCN(c4cnc(C(=O)NC5CC5)nc4C(F)F)CC3)cc2[nH]c1=O` [Compound 34] cannot be ordered by IC50: 10 to 50 nM for the first, at most 10 nM for the second.

`CCc1cc2ncc(CN3CCN(c4ccc(C(=O)NC5CC5F)nc4)CC3)cc2[nH]c1=O` (stereo not drawn) [Compound 11] and `CCc1cc2ncc(CN3CCN(c4ccc(C(=O)NC5CC5F)nn4)CC3)cc2[nH]c1=O` (stereo not drawn) [Compound 37] cannot be ordered by IC50: at most 10 nM for the first, 10 to 50 nM for the second.

`CCc1cc2ncc(CN3CCN(c4ccc(C(=O)NC5CC(F)(F)C5)nc4)CC3)cc2[nH]c1=O` [Compound 13] and `CCc1cc2ncc(CN3CCN(c4cnc(C(=O)NC5CC(F)(F)C5)nc4)CC3)cc2[nH]c1=O` [Compound 39] cannot be ordered by IC50: at most 10 nM for the first, 10 to 50 nM for the second.

`CCc1nc2ccc(CN3CCN(c4ccc(C(=O)NC5CC5)nc4)CC3)cc2[nH]c1=O` [Compound 14] and `CCc1nc2ccc(CN3CCN(c4ccc(C(=O)NC5CCC5)nc4)CC3)cc2[nH]c1=O` [Compound 15] cannot be ordered by IC50: at most 10 nM for the first, at most 10 nM for the second.

`O=C(NC1CC1)c1ccc(N2CCN(Cc3ccc4nc(CCF)c(=O)[nH]c4c3)CC2)cn1` [Compound 16] and `O=C(NC1CC1)c1ccc(N2CCN(Cc3ccc4nc(CC(F)F)c(=O)[nH]c4c3)CC2)cn1` [Compound 17] cannot be ordered by IC50: at most 10 nM for the first, at most 10 nM for the second.

`CCc1nc2ccc(CN3CCN(c4ccc(C(=O)NC5CC5)nc4F)CC3)cc2[nH]c1=O` [Compound 18] and `CCc1nc2ccc(CN3CCN(c4ccc(C(=O)NC5CC5)nc4C)CC3)cc2[nH]c1=O` [Compound 25] cannot be ordered by IC50: at most 10 nM for the first, at most 10 nM for the second.

`CCc1nc2ccc(C(C)N3CCN(c4ccc(C(=O)NC5CC5)nc4)CC3)cc2[nH]c1=O` (stereo not drawn) [Compound 19] and `CCc1cc2ncc(C(C)N3CCN(c4ccc(C(=O)NC5CC5)nc4)CC3)cc2[nH]c1=O` (stereo not drawn) [Compound 42] cannot be ordered by IC50: at most 10 nM for the first, 10 to 50 nM for the second.

`CCc1nc2ccc(CN3CCN(c4ccc(C(=O)NC5CC(F)C5)nc4)CC3)cc2[nH]c1=O` (stereo not drawn) [Compound 21] and `CCc1nc2ccc(CN3CCN(c4ccc(C(=O)NC5CC(F)(F)C5)nc4)CC3)cc2[nH]c1=O` [Compound 22] cannot be ordered by IC50: at most 10 nM for the first, at most 10 nM for the second.

`CCc1nc(C(=O)NC2CC2)ccc1N1CCN(Cc2ccc3nc(CC)c(=O)[nH]c3c2)CC1` [Compound 23] and `CCc1nc2ccc(CN3CCN(c4ccc(C(=O)NC5CC5)nc4C(F)F)CC3)cc2[nH]c1=O` [Compound 24] cannot be ordered by IC50: at most 10 nM for the first, at most 10 nM for the second.

`CCc1nc2ncc(CN3CCN(c4ccc(C(=O)NC5CC5)nc4)CC3)cc2[nH]c1=O` [Compound 26] and `O=C(NC1CC1)c1ccc(N2CCN(Cc3cnc4nc(C5CC5)c(=O)[nH]c4c3)CC2)cn1` [Compound 64] cannot be ordered by IC50: at most 10 nM for the first, at most 10 nM for the second.

`CCc1nc2ncc(CN3CCN(c4ccc(C(=O)NC5CC5)nc4F)CC3)cc2[nH]c1=O` [Compound 27] and `CCc1nc2ncc(CN3CCN(c4ccc(C(=O)NC5CC5)nc4C(F)F)CC3)cc2[nH]c1=O` [Compound 28] fall in the same range of IC50: 10 to 50 nM for the first, 10 to 50 nM for the second.

`CCc1cc2ncc(CN3CCN(c4cnc(C(=O)NC)cn4)CC3)cc2[nH]c1=O` [Compound 29] and `CCc1cc2ncc(CN3CCN(c4cnc(C(=O)NC5CC5)cn4)CC3)cc2[nH]c1=O` [Compound 31] fall in the same range of IC50: 10 to 50 nM for the first, 10 to 50 nM for the second.

`CCc1cc2ncc(CN3CCN(c4ccc(C(=O)NC)nn4)CC3)cc2[nH]c1=O` [Compound 30] and `CCc1cc2ncc(CN3CCN(c4ccc(C(=O)NC5CC5)nn4)CC3)cc2[nH]c1=O` [Compound 33] cannot be ordered by IC50: 10 to 50 nM for the first, at most 10 nM for the second.

`CCc1cc2ncc(C(C)N3CCN(c4cnc(C(=O)NC5CC5)nc4)CC3)cc2[nH]c1=O` (stereo not drawn) [Compound 35] and `CNC(=O)c1ccc(N2CCN(C(C)c3cnc4cc(C5CC5)c(=O)[nH]c4c3)CC2)cn1` (stereo not drawn) [Compound 68] cannot be ordered by IC50: at most 10 nM for the first, at most 10 nM for the second.

`CCc1cc2ncc(CN3CCN(c4cnc(C(=O)NC5CC5)nc4F)CC3)cc2[nH]c1=O` [Compound 36] and `CCc1cc2ncc(CN3CCN(c4cnc(C(=O)NC5CC(F)C5)cn4)CC3)cc2[nH]c1=O` (stereo not drawn) [Compound 38] cannot be ordered by IC50: at most 10 nM for the first, 10 to 50 nM for the second.

`CCc1nc(C(=O)NC)ccc1N1CCN(C(C)c2cnc3cc(CC)c(=O)[nH]c3c2)CC1` (stereo not drawn) [Compound 40] and `CCc1cc2ncc(C(C)N3CCN(c4ccc(C(=O)NC)nc4F)CC3)cc2[nH]c1=O` (stereo not drawn) [Compound 41] fall in the same range of IC50: 10 to 50 nM for the first, 10 to 50 nM for the second.

`CCc1cc2ncc(C(C)N3CCN(c4ccc(C(=O)NC)nc4C(F)F)CC3)cc2[nH]c1=O` (stereo not drawn) [Compound 43] and `CCc1cc2ncc(CN3CCN(c4ccc(C(=O)NC)nc4C(F)F)CC3)nc2[nH]c1=O` [Compound 50] cannot be ordered by IC50: at most 10 nM for the first, at most 10 nM for the second.

`CCc1cc2ncc(CN3CCN(c4ccc(C(=O)NC)nc4)CC3)nc2[nH]c1=O` [Compound 44] and `CCc1cc2ncc(CN3CCN(c4ccc(C(=O)NC5CC5)nc4)CC3)nc2[nH]c1=O` [Compound 49] cannot be ordered by IC50: at most 10 nM for the first, at most 10 nM for the second.

`CCc1cc2ccc(CN3CCN(c4ccc(C(=O)NC)nc4)CC3)nc2[nH]c1=O` [Compound 45] and `CCc1cc2ccc(CN3CCN(c4ccc(C(=O)NC5CC5)nc4)CC3)nc2[nH]c1=O` [Compound 52] cannot be ordered by IC50: at most 10 nM for the first, 10 to 50 nM for the second.

`CCc1nc2ccc(CN3CCN(c4ccc(C(=O)NC)nc4C)CC3)nc2[nH]c1=O` [Compound 47] and `CCc1nc2ccc(CN3CCN(c4ccc(C(=O)NC)nc4F)CC3)nc2[nH]c1=O` [Compound 48] cannot be ordered by IC50: at most 10 nM for the first, at most 10 nM for the second.

`CCc1cc2ncc(CN3CCN(c4ccc(C(=O)NC)nc4F)CC3)nc2[nH]c1=O` [Compound 51] and `CCc1cc2ccc(CN3CCN(c4ccc(C(=O)NC)nc4F)CC3)nc2[nH]c1=O` [Compound 54] cannot be ordered by IC50: 10 to 50 nM for the first, at most 10 nM for the second.

`CCc1cc2ccc(CN3CCN(c4ccc(C(=O)NC)nc4C(F)F)CC3)nc2[nH]c1=O` [Compound 53] and `CCC1Oc2ncc(CN3CCN(c4ccc(C(=O)NC)nc4F)CC3)cc2NC1=O` (stereo not drawn) [Compound 56] cannot be ordered by IC50: 10 to 50 nM for the first, at most 10 nM for the second.

`CCC1Oc2ncc(CN3CCN(c4ccc(C(=O)NC5CC5)nc4)CC3)cc2NC1=O` (stereo not drawn) [Compound 55] and `CCC1Cc2ncc(CN3CCN(c4ccc(C(=O)NC5CC5)nc4)CC3)cc2NC1=O` (stereo not drawn) [Compound 60] fall in the same range of IC50: 10 to 50 nM for the first, 10 to 50 nM for the second.

`CCC1Nc2ncc(CN3CCN(c4ccc(C(=O)NC)nc4)CC3)cc2NC1=O` (stereo not drawn) [Compound 57] and `CCC1C(=O)Nc2cc(CN3CCN(c4ccc(C(=O)NC)nc4)CC3)cnc2N1C` (stereo not drawn) [Compound 58] cannot be ordered by IC50: at most 10 nM for the first, at most 10 nM for the second.

`CCC1C(=O)Nc2cc(CN3CCN(c4ccc(C(=O)NC5CC5)nc4)CC3)cnc2N1C` (stereo not drawn) [Compound 59] and `O=C(NC1CC1)c1ccc(N2CCN(Cc3cnc4cc(C5CC5)c(=O)[nH]c4c3)CC2)cn1` [Compound 62] fall in the same range of IC50: 10 to 50 nM for the first, 10 to 50 nM for the second.

`CCC1C(=O)Nc2cc(CN3CCN(c4ccc(C(=O)NC)nc4F)CC3)cnc2C1(C)C` (stereo not drawn) [Compound 61] and `CNC(=O)c1ccc(N2CCN(Cc3cnc4cc(C5CC5)c(=O)[nH]c4c3)CC2)nn1` [Compound 67] cannot be ordered by IC50: at most 10 nM for the first, at most 10 nM for the second.

`O=C(NC1CC1)c1ccc(N2CCN(Cc3ccc4nc(C5CC5)c(=O)[nH]c4c3)CC2)cn1` [Compound 63] and `CNC(=O)c1cnc(N2CCN(Cc3cnc4cc(C5CC5)c(=O)[nH]c4c3)CC2)cn1` [Compound 65] cannot be ordered by IC50: at most 10 nM for the first, 10 to 50 nM for the second.

Work on `CNC(=O)c1ncc(N2CCN(Cc3cnc4cc(C5CC5)c(=O)[nH]c4c3)CC2)cn1` [Compound 66] yielded an IC50 of 10 to 50 nM.

Same assay, conditions: numeric values; read-out: Inhibitory activity against PARP-1 (IC50)

`CCC1Oc2ncc(CN3CCN(c4ccc(C(=O)NC)nc4)CC3)cc2NC1=O` (stereo not drawn) [Compound 5] showed an IC50 of 1.7 nM.
